The values that follow come from patent EP4551202B1, “NAPHTHAZARIN DERIVATIVES FOR TREATMENT OF ONYCHOMYCOSIS” (Christian-Albrechts-Universität zu Kiel, priority 2022, dated 2024).

Read-outs that look alike come from different tables or passages of the source.

Data set [1] can be described thus: Comparison test of antimycotic effect upon irradiation. It counts as cell-based.
The nature of data set [2]: Migration into hoof plate from lacquer, Raman spectroscopy of cross-sections. The format is in vitro ADME, bovine. Conditions: 5 days. As for the experimental part:
As a further analysis, a bovine hoof plate, 2 mm thickness, was arranged on water-saturated cotton gauze, and pharmaceutical compound was deposited on the opposite surface of the hoof plate. This arrangement was incubated under static conditions at room temperature for 5 days. The pharmaceutical compound was used at 5 wt.-% in a preliminary formulation of 12.5 wt.-% Eudragit RL PO, 60 wt.-% ethanol, 15 wt.-% ethyl acetate, 5 wt.-% butyl acetate, 2.5 wt.-% triacetin, which formulation should mimic the Loceryl lacquer. For comparison, the topic antimycotics amorolfin in Loceryl lacquer and ciclopirox in Ciclopoli were used in parallel.
After the incubation for 5 d, the lacquer compositions were carefully removed and cross-sections from the hoof plates were made. […] This pattern of measurement points, each at a depth greater by 10 µm, up to a depth of at least 100 µm, was used for Raman spectroscopy for presence of pharmaceutical compound.

Data set [3] relates to Trichophyton rubrum I/95 (patient isolates). Put plainly: Anti-mycotic activity assay from nail (infected nail model, cow horn membranes). The following applies: for growth of T. rubrum in cow horn membrane: 15 µL/membrane; for diffusion of the compound into the supporting agar: from cow horn membrane, infected nail model. As for the experimental part: For testing the effect of the pharmaceutical compounds in a nail, compounds were applied as a solution of 5 mg/ml or 10 mg/ml in nitrocellulose-based cosmetic nail lacquer, diluted 1: 1 with ethyl acetate, onto cow horn membranes representing nail.
Trichophyton rubrum I/95 (patient isolates) was cultivated for 1-3 weeks on GPY (0.1 % glucose, 0.05 % peptone, 0.01 yeast extract, 1.5 % agar) at 28°C. For the infected nail model, petri dishes with M186 agar (1% glucose, 0.5% peptone from soybeans, 0.3% yeast extract, 0.3% malt extract, 1.5 % agar, supplemented with 100 U/ml penicillin and […]) where inoculated with the pathogen using sterile cotton swabs. Afterwards autoclaved cow horn membranes (in DPBS-buffer solution, 100 µm thick, 8 mm in diameter) where put onto the agar (5 per petri dish) followed by incubation for 48 h at 29 °C. […] The formulations were applied to 15 µL/membrane to the cow horn membranes using an Eppendorf pipette. After incubation for another 24 h four membranes of each type (control, vehicle, 5 mg/ml or 10 mg/ml deoxyshikonin) were transferred onto fresh petri dishes with the surface to which the formulation was applied now facing the agar. […] Afterwards formulations were applied (15 µL/membrane) onto the untreated side of the membranes (facing upwards), they were allowed to dry and were irradiated again for 5 min (2x). The dishes were incubated for 24 h at 29 °C and irradiated again for 5 min (2x). After 7 days of incubation at 29 °C the dishes were evaluated. Anytime handling the compounds and the agar plates after application of the formulations the ambient light was turned off and a red-light LED was used to protect them from any activating light source.

In a further data set the test system is C. albicans. The data set is described as above. The format is cell-based.
Data set [4] has as its system Candida albicans, strain DSM 1386. Put plainly: Anti-mycotic activity assay in pathogen suspension (resazurin fluorescence). It counts as cell-based. As to the method: (§1) For determining the IC50 of the anti-mycotic activity of compounds, the human pathogen Candida albicans, strain DSM 1386, or clinical isolates of Trichophyton rubrum obtained from patient samples were used.
Candida albicans DSM 1386 was cultivated overnight in medium M186/3 (3.3 % glucose, 0.16 % peptone from soybeans, 0.1% yeast extract, 0.1 % malt extract). Test samples were added in triplicates to a 96-well plate for a final assay concentration of 10 µM and 100 µM of pharmaceutical compounds. 200 µl of the yeast was added to each well after diluting the overnight culture to an optical density (600 nm) of 0.03. […] Handling of the test compounds and well plates took place in a darkened room equipped with red-light LEDs to protect them from green light. Microplates were incubated for 5 h at 28 °C on a shaker at 200 rpm. Subsequently, 10 µl resazurin solution (0.3 mg/ml in phosphate buffer) was added to each well and the microplates were incubated again for 30 min before measuring fluorescence (560/590 nm) using a microplate reader (Tecan Infinite M200, Tecan, Männedorf, Switzerland). Nystatin was used as positive control.

The subject of data set [5] is Trichophyton rubrum I/95 (patient isolate). Put plainly: Anti-mycotic activity assay in pathogen suspension (optical density at 600 nm). It counts as cell-based. The following applies: light or radiation study, read-out: Tru IC50 with irradiation. As for the experimental part:
as §1
Trichophyton rubrum I/95 (patient isolate) was cultivated for 1 week on GPY (0.1% glucose, 0.05% petone, 0.01 yeast extract, 1.5% agar) at 28°C. A suspension of 5x10^4 spores/ml in M186 (1% glucose, 0.5% peptone from soybeans, 0.3% yeast extract, 0.3% malt extract) was prepared and added to each well of a microplate containing one of the pharmaceutical compounds, which were pipetted in triplicates for a final concentration of […] and 100 µM. The wells were irradiated using the custom-made light source with a peak wavelength of 519 nm. Handling of the test compounds and well plates took place in a darkened room equipped with a red-light LED to protect them from green light. After incubation for 72 h at 28 °C and 120 rpm the optical density at 600 nm was measured using the microplate reader Tecan Infinite M200.

The test system is the same in data set [6]. Described as above. It counts as cell-based. Conditions: light or radiation study; antimycotic activity against Trichophyton rubrum; without irradiation (dark); read-out: Tru IC50 without irradiation.
Setting [7] is: 5 wt.-% in preliminary Eudragit RL PO lacquer formulation, bovine hoof plate 2 mm, room temperature, one topical application.
[8] abbreviates: with irradiation at 519 nm, 5 mg/ml or 10 mg/ml in diluted nitrocellulose-based nail lacquer, evaluated after 7 days.
Setting [9] is: without irradiation, compound in diluted nitrocellulose-based nail lacquer.
Setting [10] is: DSM1386, light or radiation study, antimycotic activity against Candida albicans, with irradiation, peak wavelength 519 nm, read-out: Ca IC50 with irradiation.
Where [11] appears, read: antimycotic activity against Trichophyton rubrum, with irradiation, peak wavelength 519 nm.
[12] abbreviates: Candida albicans, DSM1386, light or radiation study, antimycotic activity against Candida albicans, with irradiation, peak wavelength 519 nm, read-out: Ca IC50 with irradiation.
The mark [13] stands for this setting: antimycotic activity against Candida albicans, with irradiation, peak wavelength 519 nm, read-out: Ca IC50 with irradiation.

As to `O=C1C=C(O)C(=O)c2ccccc21` [2-hydroxy-1,4-naphthochinone], in data set [1], the “antimycotic effect upon irradiation” value was “essentially no antimycotic effect”.
Take `NCC(=O)CCC(=O)O` [5-amino laevulinic acid]: in data set [2] (setting [7]), the “depth of migration into the keratin cross-section” value (from here on “depth”) came to 30 µm. The “growth of T. rubrum in cow horn membrane” value in data set [3] (setting [8]) and in data set [3] (setting [9]) was “did not suppress growth” in each case. The “growth of C. albicans in cow horn membrane” value (shortened to “growth of C. albicans”) in the data set with C. albicans (with irradiation at 519 nm) and with C. albicans (without irradiation) was “did not suppress growth” in each case.
As for `CC1=CC(=O)c2c(O)ccc(O)c2C1=O` [BJ-18], the IC50 in data set [4] (setting [10]) stood at 2.34 ± 0.846 µM; in data set [4] (DSM1386, light or radiation study, antimycotic activity against Candida albicans, without irradiation (dark), read-out: Ca IC50 without irradiation), 10.9 ± 4.08 µM; in data set [5] (setting [11]), 0.0876 ± 0.0654 µM.
Regarding `CC(C)(C)C1=CC(=O)c2c(O)ccc(O)c2C1=O` [BJ-19], the IC50 was found to be 7.65 ± 4.48 µM in data set [4] (setting [10]) and 0.244 ± 0.192 µM in data set [5] (setting [11]).
For `CC1=C(C)C(=O)c2c(O)ccc(O)c2C1=O` [BJ-27], the IC50 in data set [4] (setting [10]) is 2.75 ± 0.07 µM; in data set [5] (setting [11]), 0.321 ± 0.212 µM.
For `CC(C)C1=CC(=O)c2c(O)ccc(O)c2C1=O` [BJ-28], the IC50 was 1.04 ± 0.185 µM in data set [4] (setting [10]) and 0.0427 µM in data set [5] (setting [11]).
Regarding `CCC1=CC(=O)c2c(O)ccc(O)c2C1=O` [BJ-34], the IC50 in data set [4] (setting [10]) was 0.715 ± 0.209 µM; in data set [5] (setting [11]), 0.0242 ± 0.0206 µM.
Consider `CCCC1=CC(=O)c2c(O)ccc(O)c2C1=O` [BJ-35], for which the IC50 in data set [4] (setting [10]) was found to be 0.599 ± 0.289 µM; in data set [5] (setting [11]) it was 0.013 ± 0.0122 µM.
Regarding `CCCCC1=CC(=O)c2c(O)ccc(O)c2C1=O` [BJ-36], the “depth” value in data set [2] (bovine, 5 wt.-%) is given as “more than 70 µm”. Moreover, in data set [3], the “diffusion of the compound into the supporting agar” value was “without diffusion of the compound into the supporting agar”. Moreover, the “growth of T. rubrum in cow horn membrane” value was “effectively eliminated any growth” in data set [3] (setting [8]) and “not effective in suppressing growth” in data set [3] (setting [9]). Further, the IC50 in data set [4] (setting [10]) is 0.556 ± 0.355 µM; in data set [5] (setting [11]), 0.001 ± 0.0003 µM. Further, the “growth of C. albicans” value in the data set with C. albicans (with irradiation at 519 nm) is “effectively eliminated any growth”; in the data set with C. albicans (without irradiation) it was “not effective in suppressing growth”.
For the compound `O=C1C=C(c2ccccc2)C(=O)c2c(O)ccc(O)c21` [BJ-39], the IC50 in data set [5] (setting [11]) was 0.0029 µM.
`O=C1C=C(Nc2ccccc2)C(=O)c2c(O)ccc(O)c21` [BJ-49]: the IC50 in data set [4] (setting [10]) was found to be 0.57 µM; in data set [5] (setting [11]) it was 0.352 ± 0.15 µM.
For `CN(C)C1=CC(=O)c2c(O)ccc(O)c2C1=O` [BJ-SK-Amin], the values for the IC50 in data set [4] (setting [10]), in data set [6] and in data set [5] (setting [11]) were 1.48 µM, 8.14 µM and 3.34 µM, respectively.
With `CC(C)=CCCC1=CC(=O)c2c(O)ccc(O)c2C1=O` [DOS, Deoxyshikonin], the “depth” value in data set [2] (setting [7]) is “more than 50 µm”. Besides, the “growth of T. rubrum in cow horn membrane” value is recorded as “effectively suppressed growth of T. rubrum” in data set [3] (setting [8]) and “reduced compared to both controls but not suppressed” in data set [3] (setting [9]). Moreover, the IC50 was found to be 0.213 ± 0.0547 µM in data set [4] (setting [12]), 0.213 ± 0.055 µM in data set [4] (setting [13]) and 0.0322 ± 0.0174 µM in data set [5] (setting [11]).
Take `O=C1C=CC(=O)c2c(O)ccc(O)c21` [Naphthazarin]: the IC50 amounted to 0.632 ± 0.175 µM in data set [4] (Candida albicans, DSM1386, light or radiation study, read-out: Ca IC50 with irradiation) and 0.353 ± 0.237 µM in data set [5] (Trichophyton rubrum).
With `C[C@@H]1[C@H](O)[C@@H](C)/C=C/C=C/CC/C=C/C=C/C=C/C=C/C(O[C@H]2O[C@H](C)[C@@H](O)[C@H](N)[C@@H]2O)CC2O[C@](O)(CC(O)C(O)CCC(O)CC(O)CC(O)CC(=O)O[C@H]1C)CC(O)C2C(=O)O` (stereo partly shown) [Nystatin, reference compound], the IC50 in data set [4] (setting [13]) came to 1.67 ± 0.886 µM; in data set [4] (antimycotic activity against Candida albicans, without irradiation (dark), read-out: Ca IC50 without irradiation) it was 0.692 µM. In addition, in data set [4] (under irradiation, believed to be caused by decomposition under irradiation), the “activity under irradiation compared with no irradiation” value is “lower activity under irradiation”.
Turning to `CC(C)=CCC(O)C1=CC(=O)c2c(O)ccc(O)c2C1=O` (stereo not shown) [Shikonin/ Alkannin], the IC50 is 1.48 µM in data set [4] (setting [12]), 10.5 ± 6.92 µM in data set [6] and 0.781 ± 0.407 µM in data set [5] (setting [11]).
For `CCC(C)(C)c1ccc(CC(C)CN2C[C@@H](C)O[C@@H](C)C2)cc1` (stereo partly shown) [amorolfin], in data set [2] (commercial lacquers (amorolfin in Loceryl lacquer, ciclopirox in Ciclopoli), bovine hoof plate 2 mm, room temperature), the “depth” value is on record as “could not be detected inside the keratin cross-section”.
As for `Cc1cc(C2CCCCC2)n(O)c(=O)c1` [ciclopirox], the “depth” value in data set [2] (bovine) is recorded as at most 40 µm.
On to `CN(C)c1ccc2nc3ccc(=[N+](C)C)cc-3sc2c1` [methylene blue, reference compound], for which, in data set [2] (bovine, 5 wt.-%), the “depth” value was 50 µm. Moreover, in data set [3], the “diffusion of the compound into the supporting agar” value was “diffusion of methylene blue into the supporting agar”. Moreover, the “growth of T. rubrum in cow horn membrane” value in data set [3] (setting [8]) and in data set [3] (setting [9]) was “did not suppress growth” throughout. The “growth of C. albicans” value in the data set with C. albicans (with irradiation at 519 nm) and with C. albicans (without irradiation) was “did not suppress growth” throughout.

By IC50 is commonly meant the concentration at which inhibition is half-maximal.
